# Experimental data from ChEMBL document CHEMBL1201862, “PubChem BioAssay data set” (2004).
#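 In this assay, cells in 96-well plates receive the compound at five concentrations for 48 hours. Endpoints are linearly interpolated between the surrounding concentrations. The concentration for 50% growth inhibition is given as GI50.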 Activity calls are given as the source filed them. No stated cut-off is given here; in the data, active = GI50 up to about 1.1 µM and inactive = higher.
# Assays:
# Test in all cases: NCI tumour cell line growth inhibition, 48 h
# DMS-273 = tested on: DMS-273
# SW-620 = tested on: SW-620
# HCT-15 = tested on: HCT-15
# Malme-3M = tested on: Malme-3M
# A498 = tested on: A498
# HT-29 = tested on: HT-29
# OVCAR-5 = tested on: OVCAR-5
# NCI-H460 = tested on: NCI-H460
# M19-MEL = tested on: M19-MEL
# DLD-1 = tested on: DLD-1
# CCRF-CEM = tested on: CCRF-CEM
# ACHN = tested on: ACHN
# CAKI-1 = tested on: CAKI-1
# KM-20L2 = tested on: KM-20L2
# BT-549 = tested on: BT-549
# MDA-MB-435 = tested on: MDA-MB-435
# DU-145 = tested on: DU-145
# Hs-578T = tested on: Hs-578T
# PC-3 = tested on: PC-3
# T47D = tested on: T47D
Compound,GI50 (DMS-273),GI50 (SW-620),GI50 (HCT-15),GI50 (Malme-3M),GI50 (A498),GI50 (HT-29),GI50 (OVCAR-5),GI50 (NCI-H460),GI50 (M19-MEL),GI50 (DLD-1),GI50 (CCRF-CEM),GI50 (ACHN),GI50 (CAKI-1),GI50 (KM-20L2),GI50 (BT-549),GI50 (MDA-MB-435),GI50 (DU-145),GI50 (Hs-578T),GI50 (PC-3),GI50 (T47D)
O=[N+]([O-])c1ccc(/C=C/c2ccc(/N=N/c3ccc(/C=C/c4ccc([N+](=O)[O-])cc4S(=O)(=O)O)c(S(=O)(=O)O)c3)cc2S(=O)(=O)O)c(S(=O)(=O)O)c1,> 71 µM (inactive),> 100 µM (inactive),> 63.7 µM,> 100 µM (inactive),> 100 µM (inactive),> 100 µM (inactive),> 100 µM (inactive),> 100 µM (inactive),> 100 µM (inactive),> 100 µM (inactive),> 100 µM (inactive),,,,,,,,,
Cn1c(=O)c2c(nc3n2C(CCl)CO3)n(C)c1=O (configuration not stated),> 100 µM (inactive),> 100 µM (inactive),> 100 µM,> 100 µM (inactive),> 100 µM (inactive),> 100 µM (inactive),> 100 µM (inactive),> 100 µM (inactive),> 100 µM (inactive),> 100 µM (inactive),> 100 µM (inactive),> 100 µM (inactive),> 100 µM (inactive),,,,,,,
CC(=O)NC1C(OCc2ccccc2)OC(CO)C(O)C1OC(C)C(=O)N[C@@H](C)C(=O)N[C@H](CCC(=O)OCCNc1c2ccccc2nc2cccc([N+](=O)[O-])c12)C(N)=O (some centres not stated),0.0016 µM (active),0.000191 µM (active),0.000166 µM,0.00158 µM (active),0.00501 µM (active),0.000186 µM (active),0.00206 µM (active),0.000129 µM (active),,0.00139 µM (active),0.0189 µM (active),0.00145 µM (active),0.00625 µM (active),0.000175 µM (active),,,,,,
O=C1/C(=C\c2ccccc2)c2ccccc2N1Cc1ccccc1,,9.84 µM (inactive),9.46 µM,6.92 µM (inactive),> 10 µM (inactive),6.15 µM (inactive),10.4 µM (inactive),12.8 µM (inactive),,,3.15 µM (inactive),12.5 µM (inactive),6.67 µM (inactive),,3.61 µM (inactive),3.72 µM (inactive),12.4 µM (inactive),5.14 µM (inactive),11.1 µM (inactive),6.61 µM (inactive)
Cn1c2ccccc2n2c(=O)c(-c3ccc(O)cc3)nnc12,,> 100 µM (inactive),> 100 µM,> 100 µM (inactive),> 100 µM (inactive),> 100 µM (inactive),> 100 µM (inactive),87.3 µM (inactive),,,> 100 µM (inactive),70 µM (inactive),27.7 µM (inactive),,56 µM (inactive),> 100 µM (inactive),> 100 µM (inactive),34.8 µM (inactive),> 100 µM (inactive),> 100 µM (inactive)
Cc1cc(N(CCC#N)CCC#N)ccc1/C=C1\SC(=S)NC1=O,,> 100 µM (inactive),> 100 µM,52.1 µM (inactive),49.8 µM (inactive),> 100 µM (inactive),34.9 µM (inactive),30.3 µM (inactive),,,25.9 µM (inactive),> 100 µM (inactive),41.4 µM (inactive),,37.2 µM (inactive),82.2 µM (inactive),> 100 µM (inactive),14.2 µM (inactive),36.8 µM (inactive),66.7 µM (inactive)
C/C=C1/CN2CC[C@@H]3c4ccccc4N4[C@H](C(=O)OC)[C@H]1C[C@H]2[C@]34/C=C/C1=COC[C@@H]2[C@H]1C[C@H]1c3c(c4ccccc4n3C)C[C@@H]2N1C,,3.83 µM (inactive),4.14 µM,4.62 µM (inactive),4.59 µM (inactive),2.77 µM (inactive),4.33 µM (inactive),4.04 µM (inactive),,,5.31 µM (inactive),4.03 µM (inactive),4.1 µM (inactive),,4.32 µM (inactive),3.26 µM (inactive),5.12 µM (inactive),4.48 µM (inactive),2.9 µM (inactive),4.23 µM (inactive)
COc1ccc(OC)c(C2CCc3nc4nc(N)nc(N)c4cc3C2)c1 (configuration not stated),,2.86 µM (inactive),14.1 µM,1.92 µM (inactive),12.7 µM (inactive),3.01 µM (inactive),9.35 µM (inactive),4.66 µM (inactive),,,2.96 µM (inactive),12 µM (inactive),20.8 µM (inactive),,6.9 µM (inactive),2.04 µM (inactive),5.66 µM (inactive),3.75 µM (inactive),3.56 µM (inactive),1.94 µM (inactive)
CCOC(=O)C1=C(O)C2C3CC4C2C(O)=C(C(=O)OCC)C2C1C3C42 (configuration not stated),,> 100 µM (inactive),> 100 µM,> 100 µM (inactive),> 100 µM (inactive),> 100 µM (inactive),> 100 µM (inactive),> 100 µM (inactive),,,42.7 µM (inactive),> 100 µM (inactive),> 100 µM (inactive),,> 100 µM (inactive),> 100 µM (inactive),> 100 µM (inactive),> 100 µM (inactive),> 100 µM (inactive),> 100 µM (inactive)
[O-]c1c2c(nn1-c1ccc(F)cc1)c1ccccc1c[n+]2Cc1ccccc1,,14.8 µM (inactive),0.581 µM,11.7 µM (inactive),30.9 µM (inactive),10.2 µM (inactive),11.9 µM (inactive),10.5 µM (inactive),,11 µM (inactive),0.401 µM (active),1.77 µM (inactive),18.8 µM (inactive),11.6 µM (inactive),,,,,,
Oc1ccc2ccccc2c1Cc1c(O)ccc2ccccc12,,16 µM (inactive),14.8 µM,13.2 µM (inactive),18.2 µM (inactive),22.1 µM (inactive),15.6 µM (inactive),26.5 µM (inactive),,,19.3 µM (inactive),17.3 µM (inactive),17.1 µM (inactive),,16.9 µM (inactive),11 µM (inactive),17.9 µM (inactive),14.2 µM (inactive),17.5 µM (inactive),20.3 µM (inactive)
CC(C)(C)c1ccc(OCCOCCOc2ccc(C(C)(C)C)cc2S(N)(=O)=O)c(S(N)(=O)=O)c1,72.6 µM (inactive),> 100 µM (inactive),45.6 µM,28.5 µM (inactive),20.3 µM (inactive),6.84 µM (inactive),> 100 µM (inactive),34.9 µM (inactive),> 100 µM (inactive),99.5 µM (inactive),> 100 µM (inactive),29.1 µM (inactive),> 100 µM (inactive),,,,,,,
C/C(=N\NC(=O)C(N)=O)c1c(O)cc(C)oc1=O,,> 100 µM (inactive),> 100 µM,> 100 µM (inactive),> 100 µM (inactive),> 100 µM (inactive),,> 100 µM (inactive),> 100 µM (inactive),> 100 µM (inactive),> 100 µM (inactive),> 100 µM (inactive),,> 100 µM (inactive),,,,,,
C#Cc1ccccc1C(=O)OC,> 100 µM (inactive),> 100 µM (inactive),> 100 µM,> 100 µM (inactive),> 100 µM (inactive),> 100 µM (inactive),> 100 µM (inactive),> 100 µM (inactive),,> 100 µM (inactive),> 100 µM (inactive),> 100 µM (inactive),,> 100 µM (inactive),,,,,,
